Measurements: patent US11478469B2, “Combination product of BCL-2 inhibitor and MDM2 inhibitor and use thereof in the prevention and/or treatment of diseases” (ASCENTAGE PHARMA (SUZHOU) CO., LTD., priority 2018, dated 2022)

Columns and labels:
[1] = tested on: human OCI-AML-3 (AML) mouse xenograft tumor; assay: Human OCI-AML-3 AML mouse xenograft tumor model; assay type: in vivo; settings: for antitumor effect in words: 11 days of administration, Compound 6 25 or 100 mg/kg qd, APG-115 100 mg/kg (d1-d4) and 50 mg/kg (d5-d11) q2d
From the text: (§1) A subcutaneous xenograft tumor model of human tumor immunodeficient mice was established by cell inoculation (see: Gould S E et al. Translational value of mouse models in oncology drug development. Nature medicine. 2015 21, 431-439; and, Souers A J et al. ABT-199, a potent and selective BCL-2 inhibitor, achieves antitumor activity while sparing platelets. Nature medicine. 2012 19.202-208): tumor cells in logarithmic growth phase were collected, counted and resuspended in 1×PBS, and the cell suspension concentration was adjusted to 2.5-5×10^7/mL. Using a 1 mL syringe ([…]), the tumor cells were inoculated subcutaneously in the right side of immunodeficient mice, 5-10×106/0.2 mL/mouse (experimental animals were purchased from Beijing Vital River Laboratory Animal Technology Co., Ltd. SCXK (Beijing) 2016-0006). All animal experiments were strictly in accordance with the laboratory animal use and management practices of GenePharma Co., Ltd. and Ascentage Pharma Group Co., Ltd. The calculation of relevant parameters referred to the Chinese CFDA “Guidelines for Non-Clinical Research Techniques of Cytotoxic Antitumor Drugs”.
(§2) Animal body weight and tumor size were measured twice a week during the experiment. The conditions and death of the animals were observed every day. Routine monitoring included the effects of tumor growth and treatment on normal animal behaviors, including activity, feeding and drinking situations, weight gain or loss, eyes, coat and other abnormalities in the experimental animals. The deaths and clinical symptoms observed during the experiment were recorded in the raw data. The entire operations of administration, measurement of mouse body weight and tumor volume were performed in a clean bench. Plasma and tumor tissues were collected, weighed and photographed after the end of the last administration according to the experimental protocol. Plasma and tumor samples were frozen and stored at −80° C.
(§3) Tumor volume (TV) was calculated as: TV=a×b2/2, in which a and b represented the length and width of the tumor as measured, respectively. The relative tumor volume (RTV) was calculated as: RTV=Vt/V1, in which V1 was the tumor volume at the time of grouping and administration, and Vt was the tumor volume measured on a day after administration. The evaluation index of anti-tumor activity was the relative tumor proliferation rate T/C (%), which was calculated as: relative tumor proliferation rate T/C (%)=(TRTV/CRTV)×100%, in which TRTV was the RTV of the treatment group, CRTV was the RTV of the vehicle control group; tumor remission rate (%) was calculated as: (the number of SD (stable disease), PR (tumor partial regression) and CR (tumor complete regression) in the tumor-bearing mice after treatment)/the total number of mice in the group×100%. Change of body weight %=(measured body weight−body weight at the time of grouping)/body weight at the time of grouping×100%.
(§4) The synergistic analysis was performed by the following formula (Gould S E et al. Translational value of mouse models in oncology drug development. Nature medicine. 2015 21, 431-439): synergy factor=((A/C)×(B/C))/(AB/C); A=RTV value of the group administered with A only; B═RTV value of the group administered with B only; C=RTV value of the vehicle control group; AB=RTV value of the group administered with A and B in combination (Clarke R. Issues in experimental design and endpoint analysis in the study of experimental cytotoxic agents in vivo in breast cancer and other models [J]. Breast Cancer Research & Treatment, 1997, 46(2-3): 255-278).
(1) The experimental method was as described in Section (2) of Example 1. […] Therefore, a mouse xenograft tumor model was further established using the OCI-AML-3 tumor cell line to evaluate the in vivo anti-tumor effects of Compound 6 and APG-115. […]

[2] = tested on: MV-4-11 (acute myeloid leukemia (AML)); assay: CellTiter-Glo (CTG) cell proliferation assay, MV-4-11; assay type: cell-based; settings: Homo sapiens, MV4-11; MV-4-11, single agent alone, 24 hours; read-out: IC50 for inhibition of proliferation
Protocol: (§5) Anti-proliferative effects were tested by CellTiter-Glo® (CTG) assay. Cells were seeded in 96-well plates and treated with different concentrations of test substance for 24 hours. […] Each test dose was tested with 3 replicate wells. Usually, 9 series of doses of the test substance were selected, and added to 96-well plates, 5 μl/well. For the combination experiment, the final volume of the two test substances was 5 μl/well. Each test dose was tested with 3 replicate wells. On the same plate, 3-6 wells were selected and added with 100 μl of dilution solution as a control group, and another 3-6 wells were used as a blank control. […] After mixing on a shaker for 2 minutes, leaving at room temperature for 10 minutes, the fluorescence value was read by using a Biotek synergy HIMF plate reader. […] For the combination test, the cell viability was calculated by normalizing the average OD value of 3 duplicate wells of the single drug control. […] Cell viability (%) values of Compound 6 alone and the combination of Compound 6 and APG-115 in the following malignant tumor cells were determined in the CTG experiment: OCI-AML-3 (acute myeloid leukemia (AML)), MV-4-11 (acute myeloid leukemia (AML)), KMS-26 (multiple myeloma (MM)), KMS-11 (multiple myeloma (MM)).

[3] = tested on: OCI-AML-3 (acute myeloid leukemia (AML)); assay: CellTiter-Glo (CTG) cell proliferation assay, OCI-AML-3; assay type: cell-based; settings: Homo sapiens; OCI-AML-3, single agent alone, 24 hours; read-out: IC50 for inhibition of proliferation
Protocol: as §5

[4] = tested on: human RS4;11 (ALL) mouse xenograft tumor; assay: Human RS4;11 ALL mouse xenograft tumor model; assay type: in vivo; settings: for antitumor effect in words: 21 days of administration, Compound 6 50 mg/kg qd alone (12.5 or 50 mg/kg in combination), APG-115 50 mg/kg q2d; for CR (tumor complete regression), mice per group, day 21 after administration / PR (tumor partial regression), mice per group, day 21 after administration / RTV on day 21 after administration (mean ± standard error) / T/C (%) on day 21 after administration / Tumor remission rate % on day 21 after administration: Compound 6 50 mg/kg qd and/or APG-115 50 mg/kg q2d; for Tumor remission rate % on day 21 after administration: remission including CR, PR, and SD
From the text: as §1, §2, §3, §4
(1) The experimental method was as described in Section (2) of Example 1. RS4;11 carried wild-type p53 and was an ideal model for evaluating the anti-tumor effect of MDM2 inhibitors. […]

[5] = APG-115 50 mg/kg alone (text: 100 mg/kg d1-d4, 50 mg/kg d5-d11, q2d)
[6] = Compound 6 25 mg/kg qd, alone or with APG-115 50 mg/kg
[7] = Compound 6 100 mg/kg qd, alone or with APG-115 50 mg/kg

| Compound | antitumor effect in words [1] | RTV on day 11 after administration [1, 5] | T/C (%) value on day 11 after administration [1, 5] [%] | IC50 [2] [nM] | IC50 [3] [nM] | antitumor effect in words [4] | CR (tumor complete regression), mice per group, day 21 after administration [4] | PR (tumor partial regression), mice per group, day 21 after administration [4] | RTV on day 21 after administration (mean ± standard error) [4] | T/C (%) on day 21 after administration [4] [%] | Tumor remission rate % on day 21 after administration [4] [%] | RTV on day 11 after administration [1, 6] | T/C (%) value on day 11 after administration [1, 6] [%] | RTV on day 11 after administration [1, 7] | T/C (%) value on day 11 after administration [1, 7] [%] |
| --- | --- | --- | --- | --- | --- | --- | --- | --- | --- | --- | --- | --- | --- | --- | --- |
| CCN1[C@@H](C(=O)NC23CCC(C(=O)O)(CC2)CC3)[C@H](c2cccc(Cl)c2F)[C@]2(C(=O)Nc3cc(Cl)ccc32)C12CCCCC2 [APG-115] | did not exhibit tumor growth inhibition | 12.5 ± 2.5 | 69 | 1960 | 2370 | no tumor growth inhibition effect | 0/5 | 0/5 | 11.1 ± 0.9 | 106 | 0 |  |  |  |  |
| O=C(NS(=O)(=O)c1ccc(NC[C@H]2COCCO2)c([N+](=O)[O-])c1)c1ccc(N2CCN(CC3=C(c4ccc(Cl)cc4)CC4(CCC4)CC3)CC2)cc1Oc1cnc2[nH]ccc2c1 [Compound 6, (S)-N-((4-(((1,4-dioxan-2-yl)methyl)amino)-3-nitrophe-nyl)sulfonyl)-2-((1H-pyrrolo[2,3-b]pyridin-5-yl)oxy)-4-(4-((6-(4-chlorophenyl)spiro[3.5]non-6-en-7-yl)meth-yl)piperazin-1-yl)benzamide] | did not exhibit tumor growth inhibition |  |  | 84.7 | 10200 | excellent antitumor effect | 0/5 | 1/5 | 1.8 ± 0.4 | 17 | 20 | 16.2 ± 2.3 | 90 | 13.0 ± 1.9 | 72 |
